Experimental data taken from publication PMC10095442, “Intelligent De Novo Design of Novel Antimicrobial Peptides against Antibiotic-Resistant Bacteria Strains” (International Journal of Molecular Sciences, 2023).
Residues, ends and D or L forms follow the SMILES beside them.

Tests used:
[1] = test system: carbapenem-resistant P. aeruginosa (M06-06-0213); assay type: cell-based, Pseudomonas aeruginosa; conditions: P. aeruginosa M06-06-0213 (carbapenem-resistant clinical isolate); L.B. medium, approx. 10^5 CFU/mL, overnight incubation; at least three times
Procedure: (§1) MIC assays were conducted to determine the antibacterial spectrum of these peptides. MIC is defined as the minimum concentration of a reagent, viz., peptide, in this study, required to inhibit bacterial growth after overnight incubation. Microbial strains were cultured in an L.B. medium, and midlogarithmic-phase organisms were used in the antibacterial assays. All bacteria were inoculated in an L.B. medium (approximately 10^5 CFU/mL), and MIC assays were performed with various concentrations of each peptide. All activity measurements were conducted at least three times.

[2] = test system: carbapenem-susceptible P. aeruginosa (S07-10-0059); assay type: cell-based, Pseudomonas aeruginosa; conditions: carbapenem-susceptible (S07-10-0059)
Procedure: as §1

[3] = test system: methicillin-resistant S. aureus (N07-10-0043); assay type: cell-based, Staphylococcus aureus; conditions: S. aureus MRSA N07-10-0043 (methicillin-resistant clinical isolate); L.B. medium, approx. 10^5 CFU/mL, overnight incubation; at least three times
Procedure: as §1

[4] = test system: methicillin-susceptible S. aureus (S01-10-0202); assay type: cell-based, Staphylococcus aureus; conditions: methicillin-susceptible (S01-10-0202)
Procedure: as §1

Measured: Antibacterial activity (MIC)

CC(C)[C@@H]1NC(=O)[C@H](CCCNC(=N)N)NC(=O)[C@H](Cc2ccccc2)NC(=O)[C@@H](NC(=O)[C@H](Cc2c[nH]c3ccccc23)NC(=O)[C@H](CCCNC(=N)N)NC(=O)[C@@H](N)CCCNC(=N)N)CSSC[C@@H](C(=O)N[C@@H](CCCNC(=N)N)C(N)=O)NC(=O)[C@H](CCCCN)NC(=O)[C@H](CCCNC(=N)N)NC(=O)[C@H](Cc2ccc(O)cc2)NC(=O)[C@@H]2CSSC[C@H](NC1=O)C(=O)N[C@@H](Cc1ccc(O)cc1)C(=O)N[C@@H](CCCNC(=N)N)C(=O)NCC(=O)N[C@@H](Cc1ccccc1)C(=O)N2 [polyphemusin I] (HELM PEPTIDE1{R.R.W.C.F.R.V.C.Y.R.G.F.C.Y.R.K.C.R.[am]}$PEPTIDE1,PEPTIDE1,4:R3-17:R3|PEPTIDE1,PEPTIDE1,8:R3-13:R3$$$V2.0; N-terminus and C-terminus assumed)
>50 µg/mL: all assays above
